According to US5792784A, “Coupling product obtained from histamine and an amino acid” (Babizhayev; Marc, priority 1993, dated 1998):

Legend:
[1] = system: murine splenocytes; test: Immunostimulating activity in vitro on murine splenocytes (tritiated thymidine incorporation); format: cell-based
Description: The procedure is extracted from: J. Kunert-Radek, H. Stepien, K. Lyson and M. Pawlikowski--"Effects of calcium channel modulators on the proliferation of mouse spleen lymphocytes in vitro"--Agents and Actions, vol. 29, Nos 3-4 (1990), p. 254-258.
The cell proliferation is followed by the measurement of the extent of incorporation of tritriated thymidine in the cells, expressed in numbers of desintegrations per mn, deducted from the background.
The results obtained with an immunostimulator of reference, concanavaline A, are given as a comparison.
The immunostimulating effect is expressed by an Index of Stimulation (IS) [formula]
The given values are corresponding to the average of three measures.

[2] = system: cutaneous connective tissue; test: Repairing of the cutaneous connective tissue after incision in rat (histology); format: in vivo, Wistar rats
Procedure: This experiment has been carried out on a batch of 12 Wistar rats. An incision of a length of 12 mm involving in depth epiderm and derm as a whole was performed. At the end of the healing, the rats are then treated by topical applications of β-alanyl-histadine for three weeks. At the same time, a reference batch of 12 rats have been treated with placebo for the same lasting time of experiment.

[3] = Inhibition of deoxyribose oxidation (superoxide from xanthine oxidase/hypoxanthine; TBA/MDA detection); format: biochemical; conditions: 10 mM
Description: Several in vitro tests have been carried out in order to reveal the evoked different antioxidant properties.
Experimental procedure described by J. M. C. Gutteridge in Biochemistry Journal, vol. 224 (1984), p. 761-767: oxidation substrate: deoxyribose
Superoxide anions production system: xanthine oxidase/hypoxanthine detection: thiobarbituric acid/malondialdehyde (MDA)

Compound: NCCC(=O)NCCc1c[nH]cn1 [β-alanyl-histamine]
- concentration of maximum immunostimulating effect [1]: 25 µg/mL
- immunostimulating activity versus reference mitogen [1]: comparable with a reference mitogen, concanavaline A
- fold induction at 2.5 µg/mL ([1]; Mus musculus, Splenocyte, 2.5 μg/ml, average of three measures, read-out: Index of Stimulation (IS)): 4.8
- fold induction at 5 µg/mL ([1]; Mus musculus, Splenocyte, 5 μg/ml, average of three measures, read-out: Index of Stimulation (IS)): 15.7
- fold induction at 10 µg/mL ([1]; Mus musculus, Splenocyte, 10 μg/ml, average of three measures, read-out: Index of Stimulation (IS)): 16.9
- fold induction at 25 µg/mL ([1]; Mus musculus, Splenocyte, 25 μg/ml, average of three measures, read-out: Index of Stimulation (IS)): 18.6
- fold induction at 50 µg/mL ([1]; Mus musculus, Splenocyte, 50 μg/ml, average of three measures, read-out: Index of Stimulation (IS)): 12.8
- density and aspect of the constituents of the connective tissue ([2]; capillary layer versus deep layer): obviously the same in the capillary layer and in the deep layer
- thin elastic or reticulin fibres ([2]; dermic superficial layers): generally more numerous in the dermic superficial layers
- fundamental substance ([2]; toluidine blue colouring): more abundant than normal
- horny-layers ([2]; topical, after 3 weeks): identical to the ones of the surrounding normal epiderm
- restoration of epiderm ([2]; topical, after 3 weeks): The epiderm is well restored
- visibility of scar ([2]; topical, after 3 weeks): the scar is slightly or even not visible on the skin surface
- % inhibition of deoxyribose oxidation [3]: 49%
